In patent US9951063B2, “8-(piperazin-1-yl)-1,2,3,4-tetrahydro-isoquinoline derivatives” (IDORSIA PHARMACEUTICALS LTD, priority 2014, dated 2018):

Target: human CXCR3A (Homo sapiens (Human), UniProt P49682)
Test: FLIPR assay (inhibition of CXCL10-induced calcium signal)
Format: cell-based
Conditions: engineered CHO-K1 cells expressing human CXCR3A coupled to Galpha(16); Fluo-4-AM; CXCL10 agonist 20 nM; mean values where determined several times
Description: The bioactivity of compounds is tested in a fluorometric imaging plate reader (FLIPR: Molecular Devices) using engineered CHO-K1 cells expressing the human CXCR3A (GenBank: AY242128) coupled to a G protein (Galpha(16)). Cells are plated the day prior to bioassay in F12 medium supplemented with 10% FBS and G418 and hygromycin antibiotics to maintain recombinant selection. At the day of bioassay, cells are washed and dye loaded for one hour with Fluo-4-AM (Invitrogen) in Hanks Balanced Salt Solution (Invitrogen), buffered with 20 mM Hepes at pH 7.4 and sodium bicarbonate (0.038%), containing 5 mM probenecid. This buffer, but lacking the dye and containing probenecid at a concentration of 2.5 mM, is also used for washing steps (wash buffer); or lacking both dye and probenecid but supplemented with 0.1% BSA for compound dilution steps (dilution buffer). Cells are washed free of excess dye and 60 microliter of wash buffer is added. Stock solutions of test compounds are made up at a concentration of 10 mM in DMSO, and serially diluted in dilution buffer to concentrations required for inhibition dose response curves. After a 10 minute incubation period at 37° C., 10 microliters of each compound dilution are transferred from a compound plate to the plate containing the recombinant cells in the FLIPR instrument according to the manufacturer's instructions. Following basal readings, 10 microliter CXCL10 agonist at a concentration of 20 nM (from Peprotech) is added, again using the FLIPR instrument. Changes in fluorescence are monitored before and after addition of the test compounds. Emission peak values above base level after CXCL10 addition are exported after base line subtraction.
The calculated IC50 values may fluctuate depending on the daily assay performance. Fluctuations of this kind are known to those skilled in the art. In the case where IC50 values have been determined several times for the same compound, mean values are given.

Chain of human CXCR3A (P49682 whole entry): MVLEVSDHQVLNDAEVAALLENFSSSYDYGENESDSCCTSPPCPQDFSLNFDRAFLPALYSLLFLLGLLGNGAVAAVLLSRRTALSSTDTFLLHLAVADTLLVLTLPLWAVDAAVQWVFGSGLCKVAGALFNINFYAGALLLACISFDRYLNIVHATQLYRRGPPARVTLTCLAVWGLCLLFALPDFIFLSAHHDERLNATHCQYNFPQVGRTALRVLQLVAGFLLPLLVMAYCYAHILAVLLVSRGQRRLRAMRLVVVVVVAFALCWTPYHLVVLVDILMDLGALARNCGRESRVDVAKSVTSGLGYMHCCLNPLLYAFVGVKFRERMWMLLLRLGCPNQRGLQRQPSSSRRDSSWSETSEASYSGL

COc1ncc(N2CCc3c(C(F)(F)F)ccc(N4CCN(C(=O)Cn5nc(C)cc5C)[C@H](C)C4)c3C2)cn1 [Example 24, 2-(3,5-Dimethyl-pyrazol-1-yl)-1-{(R)-4-[2-(2-methoxy-pyrimidin-5-yl)-5-trifluoromethyl-1,2,3,4-tetrahydro-isoquinolin-8-yl]-2-methyl-piperazin-1-yl}-ethanone]
IC50: 3.7 nM

COc1ncc(N2CCc3c(C(F)(F)F)ccc(N4CCN(C(=O)Cn5cccn5)[C@H](C)C4)c3C2)cn1 [Example 25, 1-{(R)-4-[2-(2-Methoxy-pyrimidin-5-yl)-5-trifluoromethyl-1,2,3,4-tetrahydro-isoquinolin-8-yl]-2-methyl-piperazin-1-yl}-2-pyrazol-1-yl-ethanone]
IC50: 24 nM

COc1ncc(N2CCc3c(C(F)(F)F)ccc(N4CCN(C(=O)Cn5nccn5)[C@H](C)C4)c3C2)cn1 [Example 26, 1-{(R)-4-[2-(2-Methoxy-pyrimidin-5-yl)-5-trifluoromethyl-1,2,3,4-tetrahydro-isoquinolin-8-yl]-2-methyl-piperazin-1-yl}-2-[1,2,3]triazol-2-yl-ethanone]
IC50: 98.5 nM

COc1ncc(N2CCc3c(C(F)(F)F)ccc(N4CCN(C(=O)CCn5cccn5)[C@H](C)C4)c3C2)cn1 [Example 27, 1-{(R)-4-[2-(2-Methoxy-pyrimidin-5-yl)-5-trifluoromethyl-1,2,3,4-tetrahydro-isoquinolin-8-yl]-2-methyl-piperazin-1-yl}-3-pyrazol-1-yl-propan-1-one]
IC50: 908 nM

CCOc1ncc(N2CCc3c(C(F)(F)F)ccc(N4CCN(C(=O)Cn5cnc6cccnc65)CC4)c3C2)cn1 [Example 28, 1-{4-[2-(2-Ethoxy-pyrimidin-5-yl)-5-trifluoromethyl-1,2,3,4-tetrahydro-isoquinolin-8-yl]-piperazin-1-yl}-2-imidazo[4,5-b]pyridin-3-yl-ethanone]
IC50: 2.4 nM

CCOc1ncc(N2CCc3c(C(F)(F)F)ccc(N4CCN(C(=O)Cn5nc(C)cc5C)CC4)c3C2)cn1 [Example 29, 2-(3,5-Dimethyl-pyrazol-1-yl)-1-{4-[2-(2-ethoxy-pyrimidin-5-yl)-5-trifluoromethyl-1,2,3,4-tetrahydro-isoquinolin-8-yl]-piperazin-1-yl}-ethanone]
IC50: 30.5 nM

CCOc1ncc(N2CCc3c(C(F)(F)F)ccc(N4CCN(C(=O)Cn5nc(C)nc5C)CC4)c3C2)cn1 [Example 30, 2-(3,5-Dimethyl-[1,2,4]triazol-1-yl)-1-{4-[2-(2-ethoxy-pyrimidin-5-yl)-5-trifluoromethyl-1,2,3,4-tetrahydro-isoquinolin-8-yl]-piperazin-1-yl}-ethanone]
IC50: 13.8 nM

CCOc1ncc(N2CCc3c(C(F)(F)F)ccc(N4CCN(C(=O)Cn5ncc6cccnc65)CC4)c3C2)cn1 [Example 31, 1-{4-[2-(2-Ethoxy-pyrimidin-5-yl)-5-trifluoromethyl-1,2,3,4-tetrahydro-isoquinolin-8-yl]-piperazin-1-yl}-2-pyrazolo[3,4-b]pyridin-1-yl-ethanone]
IC50: 11.5 nM

CCOc1ncc(N2CCc3c(C(F)(F)F)ccc(N4CCN(C(=O)Cn5cc6cccnc6n5)CC4)c3C2)cn1 [Example 32, 1-{4-[2-(2-Ethoxy-pyrimidin-5-yl)-5-trifluoromethyl-1,2,3,4-tetrahydro-isoquinolin-8-yl]-piperazin-1-yl}-2-pyrazolo[3,4-b]pyridin-2-yl-ethanone]
IC50: 9.83 nM

CCOc1ncc(N2CCc3c(C(F)(F)F)ccc(N4CCN(C(=O)CN5C(=O)Cc6ccccc65)CC4)c3C2)cn1 [Example 33, 1-(2-{4-[2-(2-Ethoxy-pyrimidin-5-yl)-5-trifluoromethyl-1,2,3,4-tetrahydro-isoquinolin-8-yl]-piperazin-1-yl}-2-oxo-ethyl)-1,3-dihydro-indol-2-one]
IC50: 10.9 nM

CCOc1ncc(N2CCc3c(C(F)(F)F)ccc(N4CCN(C(=O)Cn5cnc6cccnc65)[C@@H](C)C4)c3C2)cn1 [Example 34, 1-{(S)-4-[2-(2-Ethoxy-pyrimidin-5-yl)-5-trifluoromethyl-1,2,3,4-tetrahydro-isoquinolin-8-yl]-2-methyl-piperazin-1-yl}-2-imidazo[4,5-b]pyridin-3-yl-ethanone]
IC50: 16.7 nM

CCOc1ncc(N2CCc3c(C(F)(F)F)ccc(N4CCN(C(=O)Cn5nc(C)cc5C)[C@@H](C)C4)c3C2)cn1 [Example 35, 2-(3,5-Dimethyl-pyrazol-1-yl)-1-{(S)-4-[2-(2-ethoxy-pyrimidin-5-yl)-5-trifluoromethyl-1,2,3,4-tetrahydro-isoquinolin-8-yl]-2-methyl-piperazin-1-yl}-ethanone]
IC50: 30.8 nM

CCOc1ncc(N2CCc3c(C(F)(F)F)ccc(N4CCN(C(=O)Cn5ccc(C)n5)[C@@H](C)C4)c3C2)cn1 [Example 36, 1-{(S)-4-[2-(2-Ethoxy-pyrimidin-5-yl)-5-trifluoromethyl-1,2,3,4-tetrahydro-isoquinolin-8-yl]-2-methyl-piperazin-1-yl}-2-(3-methyl-pyrazol-1-yl)-ethanone]
IC50: 6.27 nM

CCOc1ncc(N2CCc3c(C(F)(F)F)ccc(N4CCN(C(=O)CN5CCc6cccnc65)[C@@H](C)C4)c3C2)cn1 [Example 37, 2-(2,3-Dihydro-pyrrolo[2,3-b]pyridin-1-yl)-1-{(S)-4-[2-(2-ethoxy-pyrimidin-5-yl)-5-trifluoromethyl-1,2,3,4-tetrahydro-isoquinolin-8-yl]-2-methyl-piperazin-1-yl}-ethanone]
IC50: 30.9 nM

Cc1nc(C)n(CC(=O)N2CCN(c3ccc(C(F)(F)F)c4c3CN(c3nc5ccc(F)cc5s3)CC4)C[C@H]2C)n1 [Example 38, 2-(3,5-Dimethyl-[1,2,4]triazol-1-yl)-1-{(R)-4-[2-(6-fluoro-benzothiazol-2-yl)-5-trifluoromethyl-1,2,3,4-tetrahydro-isoquinolin-8-yl]-2-methyl-piperazin-1-yl}-ethanone]
IC50: 15.8 nM

C[C@@H]1CN(c2ccc(C(F)(F)F)c3c2CN(c2nc4ccc(F)cc4s2)CC3)CCN1C(=O)Cn1ncc2cccnc21 [Example 39, 1-{(R)-4-[2-(6-Fluoro-benzothiazol-2-yl)-5-trifluoromethyl-1,2,3,4-tetrahydro-isoquinolin-8-yl]-2-methyl-piperazin-1-yl}-2-pyrazolo[3,4-b]pyridin-1-yl-ethanone]
IC50: 73.5 nM

Cc1ccn(CC(=O)N2CCN(c3ccc(C(F)(F)F)c4c3CN(c3nc5ccc(F)cc5s3)CC4)C[C@H]2C)n1 [Example 40, 1-{(R)-4-[2-(6-Fluoro-benzothiazol-2-yl)-5-trifluoromethyl-1,2,3,4-tetrahydro-isoquinolin-8-yl]-2-methyl-piperazin-1-yl}-2-(3-methyl-pyrazol-1-yl)-ethanone]
IC50: 49 nM

Cc1ccnn1CC(=O)N1CCN(c2ccc(C(F)(F)F)c3c2CN(c2nc4ccc(F)cc4s2)CC3)C[C@H]1C [Example 41, 1-{(R)-4-[2-(6-Fluoro-benzothiazol-2-yl)-5-trifluoromethyl-1,2,3,4-tetrahydro-isoquinolin-8-yl]-2-methyl-piperazin-1-yl}-2-(5-methyl-pyrazol-1-yl)-ethanone]
IC50: 51.4 nM

Cc1nc(C)n(CC(=O)N2CCN(c3ccc(C(F)(F)F)c4c3CN(c3nc(C(F)(F)F)cs3)CC4)C[C@H]2C)n1 [Example 42, 2-(3,5-Dimethyl-[1,2,4]triazol-1-yl)-1-{(R)-2-methyl-4-[5-trifluoromethyl-2-(4-trifluoromethyl-thiazol-2-yl)-1,2,3,4-tetrahydro-isoquinolin-8-yl]-piperazin-1-yl}-ethanone]
IC50: 8.29 nM

C[C@@H]1CN(c2ccc(C(F)(F)F)c3c2CN(c2nc(C(F)(F)F)cs2)CC3)CCN1C(=O)Cn1ncc2cccnc21 [Example 43, 1-{(R)-2-Methyl-4-[5-trifluoromethyl-2-(4-trifluoromethyl-thiazol-2-yl)-1,2,3,4-tetrahydro-isoquinolin-8-yl]-piperazin-1-yl}-2-pyrazolo[3,4-b]pyridin-1-yl-ethanone]
IC50: 38.6 nM

Cc1ccn(CC(=O)N2CCN(c3ccc(C(F)(F)F)c4c3CN(c3nc(C(F)(F)F)cs3)CC4)C[C@H]2C)n1 [Example 44, 2-(3-Methyl-pyrazol-1-yl)-1-{(R)-2-methyl-4-[5-trifluoromethyl-2-(4-trifluoromethyl-thiazol-2-yl)-1,2,3,4-tetrahydro-isoquinolin-8-yl]-piperazin-1-yl}-ethanone]
IC50: 12 nM

Cc1ccnn1CC(=O)N1CCN(c2ccc(C(F)(F)F)c3c2CN(c2nc(C(F)(F)F)cs2)CC3)C[C@H]1C [Example 45, 2-(5-Methyl-pyrazol-1-yl)-1-{(R)-2-methyl-4-[5-trifluoromethyl-2-(4-trifluoromethyl-thiazol-2-yl)-1,2,3,4-tetrahydro-isoquinolin-8-yl]-piperazin-1-yl}-ethanone]
IC50: 12.7 nM

Cc1nc(C)n(CC(=O)N2CCN(c3ccc(C(F)(F)F)c4c3CN(c3cnc(C5CC5)nc3)CC4)C[C@H]2C)n1 [Example 46, 1-{(R)-4-[2-(2-Cyclopropyl-pyrimidin-5-yl)-5-trifluoromethyl-1,2,3,4-tetrahydro-isoquinolin-8-yl]-2-methyl-piperazin-1-yl}-2-(3,5-dimethyl-[1,2,4]triazol-1-yl)-ethanone]
IC50: 4.37 nM
